Test results as given in patent US8658646B2, “Pyrrolopyrazine kinase inhibitors” (Hoffmann-LaRoche Inc., priority 2011, dated 2014).

Each compound was assayed against T1, recombinant human SYK360-635 (Homo sapiens, UniProt P43405) (assay: Determination of IC50 of Spleen Tyrosine Kinase (SYK) inhibition, 33P ATP filtration assay). Details: SYK aa 360-635 0.5 nM; ATP 20 μM, peptide 5 μM, 0.1% BSA; read-out: SYK_ENZYME_FILTRATION/v1, BSA.
T1 construct: made in house
Format: biochemical

Question: How did the IC50 turn out when `CC(C)(C)NC(=O)c1c[nH]c2ncc(-c3nn(CC(F)(F)F)c4cc(F)ccc34)nc12` [Example I-418, 2-[6-Fluoro-1-(2,2,2-trifluoro-ethyl)-1H-indazol-3-yl]-5H-pyrrolo[2,3-b]pyrazine-7-carboxylic acid tert-butylamide] was run?
Answer: Its IC50 is 19.9 nM.

Question: `C[C@@H](CO)NC(=O)c1c[nH]c2ncc(-c3n[nH]c4cc(Cl)ccc34)nc12` [Example I-419, 2-(6-Chloro-1H-indazol-3-yl)-5H-pyrrolo[2,3-b]pyrazine-7-carboxylic acid ((S)-2-hydroxy-1-methyl-ethyl)-amide] was tested. Which IC50 did it give?
Answer: The IC50 was 6.9 nM.

Question: How did the IC50 turn out when `Cn1nc(-c2cnc3[nH]cc(C(=O)NC(C)(C)C)c3n2)c2ccc(C(F)(F)F)cc21` [Example I-420, 2-(1-Methyl-6-trifluoromethyl-1H-indazol-3-yl)-5H-pyrrolo[2,3-b]pyrazine-7 carboxylic acid tert-butylamide] was run?
Answer: The IC50 was 33.5 nM.

Question: Which IC50 does the source give for `CC(C)(C)NC(=O)c1c[nH]c2ncc(-c3cccc4cn[nH]c34)nc12` [Example I-421, 2-(1H-Indazol-7-yl)-5H-pyrrolo[2,3-b]pyrazine-7-carboxylic acid tert-butylamide] here?
Answer: The IC50 was 163 nM.

Question: How did the IC50 turn out when `Cc1ccc2c(-c3cnc4[nH]cc(C(=O)NC5(C#N)CC5)c4n3)nn(C)c2c1` [Example I-424, 2-(1,6-Dimethyl-1H-indazol-3-yl)-5H-pyrrolo[2,3-b]pyrazine-7-carboxylic acid (1-cyano-cyclopropyl)-amide] was run?
Answer: The IC50 was 7.7 nM.

Question: Which IC50 does the source give for `Cc1ccc2c(-c3cnc4[nH]cc(C(=O)NC(C)(C)CO)c4n3)nn(CCN(C)C)c2c1` [Example I-426, 2-[1-(2-Dimethylamino-ethyl)-6-methyl-1H-indazol-3-yl]-5H-pyrrolo[2,3-b]pyrazine-7-carboxylic acid (2-hydroxy-1,1-dimethyl-ethyl)-amide] here?
Answer: The IC50 was 57.4 nM.

Question: How did the IC50 turn out when `Cc1ccc2c(-c3cnc4[nH]cc(C(=O)NC(C)(C)C)c4n3)nn(CCCN(C)C)c2c1` [Example I-427, 2-[1-(3-Dimethylamino-propyl)-6-methyl-1H-indazol-3-yl]-5H-pyrrolo[2,3-b]pyrazine-7-carboxylic acid tert-butylamide] was run?
Answer: Its IC50 is 13.3 nM.

Question: For `Cc1ccc2c(-c3cnc4[nH]cc(C(=O)NC(C)(C)C5CC5)c4n3)nn(C)c2c1` [Example I-428, 2-(1,6-Dimethyl-1H-indazol-3-yl)-5H-pyrrolo[2,3-b]pyrazine-7-carboxylic acid (1-cyclopropyl-1-methyl-ethyl)-amide], which IC50 is on record?
Answer: Its IC50 is 11.9 nM.

Question: How did the IC50 turn out when `Cc1ccc2c(-c3cnc4[nH]cc(C(=O)NC5(CO)CC5)c4n3)nn(C)c2c1` [Example I-429, 2-(1,6-Dimethyl-1H-indazol-3-yl)-5H-pyrrolo[2,3-b]pyrazine-7-carboxylic acid (1-hydroxymethyl-cyclopropyl)-amide] was run?
Answer: Its IC50 is 12.5 nM.

Question: How did the IC50 turn out when `Cc1ccc2c(-c3cnc4[nH]cc(C(=O)NC(C)(C)CN(C)C)c4n3)nn(C)c2c1` [Example I-430, 2-(1,6-Dimethyl-1H-indazol-3-yl)-5H-pyrrolo[2,3-b]pyrazine-7-carboxylic acid (2-dimethylamino-1,1-dimethyl-ethyl)-amide] was run?
Answer: The IC50 was 1360 nM.

Question: How did the IC50 turn out when `Cc1ccc2c(-c3cnc4[nH]cc(C(=O)NC5(C)CCNC5)c4n3)n[nH]c2c1` (stereo not drawn) [Example I-431, 2-(6-Methyl-1H-indazol-3-yl)-5H-pyrrolo[2,3-b]pyrazine-7-carboxylic acid (3-methyl-pyrrolidin-3-yl)-amide] was run?
Answer: The IC50 was 20.7 nM.

Question: For `Cc1ccc2c(-c3cnc4[nH]cc(C(=O)NC5(CO)CC5)c4n3)n[nH]c2c1` [Example I-432, 2-(6-Methyl-1H-indazol-3-yl)-5H-pyrrolo[2,3-b]pyrazine-7-carboxylic acid (1-hydroxymethyl-cyclopropyl)-amide], which IC50 is on record?
Answer: Its IC50 is 5.6 nM.

Question: How did the IC50 turn out when `Cc1ccc2c(-c3cnc4[nH]cc(C(=O)NC(C)(C)C5CC5)c4n3)n[nH]c2c1` [Example I-433, 2-(6-Methyl-1H-indazol-3-yl)-5H-pyrrolo[2,3-b]pyrazine-7-carboxylic acid (1-cyclopropyl-1-methyl-ethyl)-amide] was run?
Answer: Its IC50 is 8.55 nM.

Question: With `Cc1ccc2c(-c3cnc4[nH]cc(C(=O)NC(C)(C)CO)c4n3)n[nH]c2c1` [Example I-434, 2-(6-Methyl-1H-indazol-3-yl)-5H-pyrrolo[2,3-b]pyrazine-7-carboxylic acid (2-hydroxy-1,1-dimethyl-ethyl)-amide] as the compound, how does the IC50 read?
Answer: The IC50 was 4.6 nM.

Question: Which IC50 does the source give for `Cc1ccc2c(-c3cnc4[nH]cc(C(=O)NC(C)(C)CN)c4n3)n[nH]c2c1` [Example I-435, 2-(6-Methyl-1H-indazol-3-yl)-5H-pyrrolo[2,3-b]pyrazine-7-carboxylic acid (2-amino-1,1-dimethyl-ethyl)-amide] here?
Answer: The IC50 was 16.7 nM.

Question: How did the IC50 turn out when `Cc1ccc2c(-c3cnc4[nH]cc(C(=O)NC(C)(C)CN(C)C)c4n3)n[nH]c2c1` [Example I-436, 2-(6-Methyl-1H-indazol-3-yl)-5H-pyrrolo[2,3-b]pyrazine-7-carboxylic acid (2-dimethylamino-1,1-dimethyl-ethyl)-amide] was run?
Answer: Its IC50 is 47.9 nM.

Question: How did the IC50 turn out when `Cc1ccc2c(-c3cnc4[nH]cc(C(=O)NC5(C#N)CC5)c4n3)n[nH]c2c1` [Example I-437, 2-(6-Methyl-1H-indazol-3-yl)-5H-pyrrolo[2,3-b]pyrazine-7-carboxylic acid (1-cyano-cyclopropyl)-amide] was run?
Answer: Its IC50 is 3.95 nM.

Question: For `Cc1ccc2c(-c3cnc4[nH]cc(C(=O)NC(C)(C)CO)c4n3)nn(CCCN3CCOCC3)c2c1` [Example I-438, 2-[6-Methyl-1-(3-morpholin-4-yl-propyl)-1H-indazol-3-yl]-5H-pyrrolo[2,3-b]pyrazine-7-carboxylic acid (2-hydroxy-1,1-dimethyl-ethyl)-amide], which IC50 is on record?
Answer: Its IC50 is 27.4 nM.

Question: With `Cc1ccc2c(-c3cnc4[nH]cc(C(=O)NC(C)(C)CO)c4n3)nn(CC(=O)N3CCOCC3)c2c1` [Example I-439, 2-[6-Methyl-1-(2-morpholin-4-yl-2-oxo-ethyl)-1H-indazol-3-yl]-5H-pyrrolo[2,3-b]pyrazine-7-carboxylic acid (2-hydroxy-1,1-dimethyl-ethyl)-amide] as the compound, how does the IC50 read?
Answer: The IC50 was 9.7 nM.

Question: For `Cn1nc(-c2cnc3[nH]cc(C(=O)NC4CCCC(NC(=O)OC(C)(C)C)C4)c3n2)c2ccc(Cl)cc21` (stereo not drawn) [Example I-442, (3-{[2-(6-Chloro-1-methyl-1H-indazol-3-yl)-5H-pyrrolo[2,3-b]pyrazine-7-carbonyl]-amino}-cyclohexyl)-carbamic acid tert-butyl ester], which IC50 is on record?
Answer: Its IC50 is 879 nM.

Question: With `Cn1nc(-c2cnc3[nH]cc(C(=O)NC4(CN)CC4)c3n2)c2ccc(F)cc21` [Example I-443, 2-(6-Fluoro-1-methyl-1H-indazol-3-yl)-5H-pyrrolo[2,3-b]pyrazine-7-carboxylic acid (1-aminomethyl-cyclopropyl)-amide] as the compound, how does the IC50 read?
Answer: Its IC50 is 656 nM.

Question: With `CC(C)(C)NC(=O)c1c[nH]c2ncc(-c3cccc4ccncc34)nc12` [Example I-444, 2-Isoquinolin-8-yl-5H-pyrrolo[2,3-b]pyrazine-7-carboxylic acid tert-butylamide] as the compound, how does the IC50 read?
Answer: Its IC50 is 1040 nM.

Question: `Cc1ccc2c(-c3cnc4[nH]cc(C(=O)NC(C)(C)CO)c4n3)nn(CCN3CCOCC3)c2c1` [Example I-445, 2-[6-Methyl-1-(2-morpholin-4-yl-ethyl)-1H-indazol-3-yl]-5H-pyrrolo[2,3-b]pyrazine-7-carboxylic acid (2-hydroxy-1,1-dimethyl-ethyl)-amide] was tested. Which IC50 did it give?
Answer: Its IC50 is 24.7 nM.

Question: How did the IC50 turn out when `CC(O)CCn1nc(-c2cnc3[nH]cc(C(=O)NC(C)(C)C)c3n2)c2cc(OC(F)F)ccc21` (stereo not drawn) [Example I-447, N-tert-Butyl-2-(5-(difluoromethoxy)-1-(3-hydroxybutyl)-1H-indazol-3-yl)-5H-pyrrolo[3,2-b]pyrazine-7-carboxamide] was run?
Answer: The IC50 was 2.7 nM.
